Data on twelve compounds can be found in patent publication US12454530B2, “Amido cyclohexane acid derivatives as LPA receptor inhibitors” (CHIESI FARMACEUTICI S.P.A., priority 2020, dated 2025).

Usually IC50 stands for the point on the concentration scale where inhibition reaches its midpoint. As a reminder, the inhibition is the change of the read-out against control, counted positive when it falls. Lower therefore signals little suppression.

Series [1] in a line: Permeability on Caco-2 cells monolayers. As to conditions: human, with Elacridar 10 µM (PgP inhibitor), Papp A>B with PgP inhibitor Elacridar, 10 μM compound, read-out: Passive Permeability. The series is classed as in vitro ADME. On the procedure: Even more advantageously, the compounds of formula (I) of the present invention are also endowed with a good permeability profile that, in its turn, can ensure a suitable bioavailability for an oral administration. The permeability was assessed in human Caco 2 cell line, an in vitro model that mimic human gastrointestinal barrier and so useful to predic oral absorption.
The permeability of the compounds of the present invention was evaluated performing the assay on Caco-2 cells monolayers (human colon adenocarcinoma immortalized cell) by measuring the transport of compound (absorption and secretion) in both directions: apical to basolateral direction (A>B) and basolateral to apical (B>A) with and without PgP inhibitor (Elacridar).
The cells, purched from ReadyCell in 96 well format (Cod. KRECE-CCR50), were cultured by the supplier for 21 day on transwell supports in DMEM 1 g/L glucose culture medium supplemented with Fetal Bovin Sierum (10%), Glutamine 200 mM (1%) and Penicillin 10000 U/ml-10 mg/ml Streptomycin (1%).
On day 21 of colture, cell monolayers integrity was verified by measuring the trans-epithelial electric resistance (TEER) using the EVOM equipment (Endohm, WPI, Germany) and studying the apparent permeability (Papp) of reference compounds (Sulpiride and Metoprolol). Furthermore, as a control, the Talinolol 10 uM (Pgp efflux substrate) with and without Elacridar in both directions was used.
The sample solution was prepared dissolving test compound in DMSO at the concentration of 10 mM and then diluted in the Assay Buffer (Hank's Balance Salt Solution) warmed at 37° C. before use, to give the 10 μM Compound working solution with and without 10 μM Elacridar. These working solutions were added to donor compartment (apical for A>B direction and basolateral for B>A direction) and Assay Buffer (Hank's Balance Salt Solution) to the receiver compartment (basolateral for A>B direction and apical for B>A direction). The plate was incubated at 37° C. for 120 min, all incubation were conducted in triplicates. At the end of incubation, samples from donor and receiver compartments were collected for HPLC-MS/MS analyses.
The permeability coefficients (Papp) in both directions: apical to basolateral (A>B) and basolateral to apical (B>A) with and without PgP inhibitor (Elacridar) was calculated in nm/sec, using the following equation:
[formula] • where: • Cr=measured concentration in the receiver well at the time t (expressed as IS ratio) • Vr=volume of the receiver well (ml) • t=time (sec) • A=membrane surface area (cm^2) • C0=initial donor concentration • Passive Papp is considered Papp A>B with PgP inhibitor Elacridar.
For orientation: Caco-2 cells form a polarised layer with tight junctions and transporters.

Series [2] concerns the target human recombinant LPA1 expressed in CHO cells (Homo sapiens (Human), UniProt Q92633). Briefly: LPA1 antagonist FLIPR calcium assay in CHO-hLPA1 cells. Type of series: cell-based. The note with it: range of activity; CHO-hLPA1, LPA EC80, Ca2+ mobilization; read-out: LPA1 IC50. On the procedure:
The effectiveness of compounds of the present invention as LPA1 antagonists can be determined at the human recombinant LPA1 expressed in CHO cells, using a FLIPR assay in 384 well format.
CHO-hLPA1 cell lines are cultured in a humidified incubator at 5% CO2 in DMEM/F-12 (1:1) MIXTURE with 2 mM Glutamax, supplemented with 10% of Foetal Bovine Serum, 1 mM Sodium Pyruvate, 11 mM Hepes and 1× Penicillin/Streptomycin. […] Serial dilutions (1:3 or 1:4, 11 points CRC) of compounds are performed in 100% DMSO at 200× the final concentration. […] The final concentration of DMSO in the assay will be 0.5% in each well. Medium is removed by aspiration and cells are then incubated with 30 μl of a loading solution containing 5 μM of the cytoplasmic Ca2+ indicator Cal-520 AM in Assay Buffer containing 2.5 mM probenecid for 30 min at 37° C. incubator (cell loading). The loaded cell plates are transferred into the FLIPR instrument and calcium responses are monitored during the on-line addition protocols. For testing of compounds, after the cell loading, 10 μl/well of 4× antagonists' solution was added onto the cells. After 30 min pre-incubation (at 37° C.), 10 μl/well of 5× concentrated LPA EC80 was added and Ca2+ mobilization responses was followed during the on-line addition protocol. Intracellular peak fluorescence values subtracted by baseline fluorescence are exported and analysed to determine IC50 values, respectively. The calcium response is expressed as percentage of the maximal inhibition of the EC80 agonist response.
The raw data (peak height expressed as relative fluorescence units) are normalized and transformed into “percent of inhibition”. Curve fitting and pIC50 (−LogIC50) estimations are carried out using a four-parameter logistic model using XLfit Software.
(In general: Calcium assays in cells follow changes in intracellular calcium, usually with a dye or a luminescent sensor.)

Series [3] addresses BSEP (Homo sapiens (Human), UniProt O95342). Briefly: BSEP inhibition: biliary clearance of Taurocolic Acid in sandwich-cultured human hepatocytes. Type of series: in vitro ADME. The note with it: sandwich-cultured cryopreserved human hepatocytes, probe Taurocolic Acid (TCA); 50 μM test compound, 10 μM TCA, human hepatocytes sandwich configuration. On the procedure: BSEP inhibition was evaluated using human hepatocytes cultured between two layer of collagen (sandwich configuration). In this culture condition, hepatocytes express relevant transporters including BSEP and retain the bile canalicular structure. An inhibition of the biliary clearance of Taurocolic Acid (TCA), a known BSEP substrate, was used to assess BSEP interaction.
BSEP inhibition was evaluated using cryopreserved human hepatocytes (Plateable Cryopreserved Human Hepatocytes, BIOIVT) cultured for 5 day between two layer of collagen (sandwich configuration). In this culture condition, hepatocytes express relevant transporters including BSEP and retain the bile canalicular structure.
On day 5 of culture, hepatic cells are ready for the assay and the biliary clearance of Taurocolic Acid (TCA), a known BSEP substrate, can be estimated in presence and in absence of compound of interest.
The sample solution was prepared dissolving test compound and TCA in DMSO and then diluted in the Assay Buffer: Hank's Balance Salt Solution (HBSS+) warmed at 37° C. before use, to give the 10 μM TCA working solution with and without 50 μM of test compound. Hepatocytes were incubated for 10 minutes with these working solutions allowing TCA to be excreted into bile. At the end of incubation, the working solution was aspirated, and the content of the bile was collected through the addition of HBSS Modified without Ca2+/Mg2+(HBSS−). The presence of Ca2+ in the buffer is required to maintain the integrity of the tight junctions, the diffusional barrier between the canalicular lumen and extracellular space. Instead, incubation of cells in Ca2+-free buffer disrupts the tight junctions and opens the bile canalicular structures, allowing the bile content to be released and collect for HPLC-MS/MS analysis.
The in vitro biliary clearance of TCA incubated with and without test compounds is calculated according to the following formula:
where • Acc. Bile=(TCA amount in HBSS (−) buffer samples (pmol/mg protein)*Volume of each samples (mL))/Protein content per well (mg) • AUC=Incubation time (min)*T0 Concentration. T0 concentration is the initial TCA concentration in the medium.
The inhibition of BSEP was calculated as percentage of inhibition of TCA biliary clearance in presence of compound of interest, according to the following formula: BSEP inhibition %=100−(TCA ClBil with test compound*100)
TCA ClBil without test compound.

Where only a bound is given, the exact number is not on record here.

Sequence of BSEP (O95342 whole entry): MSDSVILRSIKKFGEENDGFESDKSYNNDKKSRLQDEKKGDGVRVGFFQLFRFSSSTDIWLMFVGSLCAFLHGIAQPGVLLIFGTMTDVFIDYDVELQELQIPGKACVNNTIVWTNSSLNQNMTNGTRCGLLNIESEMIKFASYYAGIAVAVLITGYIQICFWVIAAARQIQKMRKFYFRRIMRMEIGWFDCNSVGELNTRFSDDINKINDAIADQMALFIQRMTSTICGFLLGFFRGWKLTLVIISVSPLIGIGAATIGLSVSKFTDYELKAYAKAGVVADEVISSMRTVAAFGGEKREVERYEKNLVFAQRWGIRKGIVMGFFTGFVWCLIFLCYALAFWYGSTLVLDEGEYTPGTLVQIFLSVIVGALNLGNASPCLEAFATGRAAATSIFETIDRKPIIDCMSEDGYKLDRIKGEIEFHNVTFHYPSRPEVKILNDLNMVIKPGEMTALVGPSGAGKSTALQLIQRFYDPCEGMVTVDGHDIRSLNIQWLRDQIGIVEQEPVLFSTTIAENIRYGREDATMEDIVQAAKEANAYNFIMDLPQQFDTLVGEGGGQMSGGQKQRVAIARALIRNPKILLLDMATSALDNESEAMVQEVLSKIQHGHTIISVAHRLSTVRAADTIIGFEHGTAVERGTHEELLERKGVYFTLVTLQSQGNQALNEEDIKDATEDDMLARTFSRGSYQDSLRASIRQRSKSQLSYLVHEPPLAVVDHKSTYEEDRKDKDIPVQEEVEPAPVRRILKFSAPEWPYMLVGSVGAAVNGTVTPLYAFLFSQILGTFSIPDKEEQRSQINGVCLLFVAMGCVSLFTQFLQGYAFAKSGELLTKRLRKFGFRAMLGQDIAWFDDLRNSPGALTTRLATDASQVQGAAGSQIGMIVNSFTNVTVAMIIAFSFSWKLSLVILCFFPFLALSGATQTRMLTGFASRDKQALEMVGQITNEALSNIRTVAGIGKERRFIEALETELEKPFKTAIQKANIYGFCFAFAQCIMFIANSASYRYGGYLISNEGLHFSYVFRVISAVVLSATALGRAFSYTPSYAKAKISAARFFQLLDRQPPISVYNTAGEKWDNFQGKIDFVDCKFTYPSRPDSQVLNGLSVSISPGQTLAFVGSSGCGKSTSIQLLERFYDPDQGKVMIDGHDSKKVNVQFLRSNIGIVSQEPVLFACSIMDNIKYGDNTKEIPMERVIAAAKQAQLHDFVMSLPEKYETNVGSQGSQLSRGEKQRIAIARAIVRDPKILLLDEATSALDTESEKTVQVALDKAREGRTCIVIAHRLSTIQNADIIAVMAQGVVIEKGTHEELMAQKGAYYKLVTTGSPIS
Sequence of human recombinant LPA1 expressed in CHO cells (Q92633 whole entry): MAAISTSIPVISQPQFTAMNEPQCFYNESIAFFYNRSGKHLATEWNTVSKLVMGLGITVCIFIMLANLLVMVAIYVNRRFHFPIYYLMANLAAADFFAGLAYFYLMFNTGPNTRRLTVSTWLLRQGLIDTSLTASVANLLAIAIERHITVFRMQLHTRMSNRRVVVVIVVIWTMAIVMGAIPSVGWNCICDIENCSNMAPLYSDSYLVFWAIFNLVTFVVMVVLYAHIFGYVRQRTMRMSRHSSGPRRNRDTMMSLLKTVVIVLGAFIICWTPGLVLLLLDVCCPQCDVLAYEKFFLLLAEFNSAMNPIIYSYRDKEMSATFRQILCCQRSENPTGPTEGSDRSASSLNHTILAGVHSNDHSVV

Consider `Cc1nc(-c2snc(C)c2NC(=O)O[C@H](C)c2ccccc2Cl)ccc1NC(=O)[C@H]1CCCC[C@@H]1C(=O)O` [Example 42, (1S,2S)-2-((6-(4-((((R)-1-(2-chlorophenyl)ethoxy)carbonyl)amino)-3-methylisothiazol-5-yl)-2-methylpyridin-3-yl)carbamoyl)cyclohexane-1-carboxylic acid], for which the Papp at 120 min, 10 µM in series [1] was at least 1.5 ×10⁻⁶ cm/s.

For the compound `COc1ccccc1[C@@H](C)OC(=O)Nc1c(C)noc1-c1ccc(NC(=O)[C@H]2CCCC[C@@H]2C(=O)O)cn1` [Example 37, (1S,2S)-2-((6-(4-((((R)-1-(2-methoxyphenyl)ethoxy)carbonyl)amino)-3-methylisoxazol-5-yl)pyridin-3-yl)carbamoyl)cyclohexane-1-carboxylic acid], in series [2], the IC50 was 50 to 250 nM. The compound further gave an inhibition at 10 min, 50 μM in series [3] of at most 50%.

As for `Cc1noc(-c2ncc(NC(=O)[C@H]3CCCC[C@@H]3C(=O)O)cc2F)c1NC(=O)O[C@H](C)c1ccccc1Cl` [Example 31, (1S,2S)-2-((6-(4-((((R)-1-(2-chlorophenyl)ethoxy)carbonyl)amino)-3-methylisoxazol-5-yl)-5-fluoropyridin-3-yl)carbamoyl)cyclohexane-1-carboxylic acid], the IC50 in series [2] was under 50 nM. In addition, in series [3], the inhibition at 10 min, 50 μM is at most 50%.

On to `Cc1nc(-c2onc(C)c2NC(=O)O[C@H](C)c2cccnc2)ccc1NC(=O)[C@H]1CCCC[C@@H]1C(=O)O` [Example 15, (1S,2S)-2-((2-methyl-6-(3-methyl-4-((((R)-1-(pyridin-3-yl)ethoxy)carbonyl)amino)isoxazol-5-yl)pyridin-3-yl)carbamoyl)cyclohexane-1-carboxylic acid], for which, in series [2], the IC50 fell in the range of 50 to 250 nM. This compound also gave an inhibition at 10 min, 50 μM in series [3] of at most 50%.

On to `Cc1nc(-c2nnn(C)c2NC(=O)O[C@H](C)c2ccccc2F)ccc1NC(=O)[C@H]1CCCC[C@@H]1C(=O)O` [Example 47, (1S,2S)-2-((6-(5-((((R)-1-(2-fluorophenyl)ethoxy)carbonyl)amino)-1-methyl-1H-1,2,3-triazol-4-yl)-2-methylpyridin-3-yl)carbamoyl)cyclohexane-1-carboxylic acid], for which the IC50 in series [2] was under 50 nM. The same compound gave an inhibition at 10 min, 50 μM in series [3] of at most 50%.

Consider `CCC[C@@H](C)OC(=O)Nc1c(-c2ccc(NC(=O)[C@H]3CCCC[C@@H]3C(=O)O)c(C)n2)nnn1C` [Example 52, (1S,2S)-2-((2-methyl-6-(1-methyl-5-(((((R)-pentan-2-yl)oxy)carbonyl)amino)-1H-1,2,3-triazol-4-yl)pyridin-3-yl)carbamoyl)cyclohexane-1-carboxylic acid], for which, in series [2], the IC50 fell in the range of 50 to 250 nM. In series [3], this compound came in with an inhibition at 10 min, 50 μM of at most 50%.

For `Cc1nc(-c2nnn(C)c2NC(=O)O[C@H](C)c2ccccc2C(F)(F)F)ccc1NC(=O)[C@H]1CCCC[C@@H]1C(=O)O` [Example 45, (1S,2S)-2-((2-methyl-6-(1-methyl-5-((((R)-1-(2-(trifluoromethyl)phenyl)ethoxy)carbonyl)amino)-1H-1,2,3-triazol-4-yl)pyridin-3-yl)carbamoyl)cyclohexane-1-carboxylic acid], in series [2], the IC50 lay within 50 to 250 nM. In series [3], this compound came in with an inhibition at 10 min, 50 μM of at most 50%.

`CCn1nnc(-c2ccc(NC(=O)[C@H]3CCCC[C@@H]3C(=O)O)c(C)n2)c1NC(=O)O[C@H](C)c1ccccc1Cl` [Example 48, (1S,2S)-2-((6-(5-((((R)-1-(2-chlorophenyl)ethoxy)carbonyl)amino)-1-ethyl-1H-1,2,3-triazol-4-yl)-2-methylpyridin-3-yl)carbamoyl)cyclohexane-1-carboxylic acid]: in series [2], the IC50 was under 50 nM. Moreover, in series [3], the inhibition at 10 min, 50 μM is at most 50%.

As for `Cc1nc(-c2cnn(C)c2NC(=O)O[C@H](C)c2ccccc2)ccc1NC(=O)[C@H]1CCCC[C@@H]1C(=O)O` [Example 43, (1S,2S)-2-((2-methyl-6-(1-methyl-5-((((R)-1-phenylethoxy)carbonyl)amino)-1H-pyrazol-4-yl)pyridin-3-yl)carbamoyl)cyclohexane-1-carboxylic acid], the IC50 in series [2] was 50 to 250 nM. This compound yielded an inhibition at 10 min, 50 μM in series [3] of at most 50%.

In the case of `Cc1noc(-c2ccc(NC(=O)[C@H]3CCCC[C@@H]3C(=O)O)cn2)c1NC(=O)OC(C)c1cccnc1F` (stereo partly drawn) [Example 17, (1S,2S)-2-((6-(4-(((1-(2-fluoropyridin-3-yl)ethoxy)carbonyl)amino)-3-methylisoxazol-5-yl)pyridin-3-yl)carbamoyl)cyclohexane-1-carboxylic acid], the IC50 in series [2] was 50 to 250 nM. Besides, the inhibition at 10 min, 50 μM in series [3] is at most 50%.

On to `Cc1nc(-c2cnn(C)c2NC(=O)O[C@H](C)C2CCCC2)ccc1NC(=O)[C@H]1CCCC[C@@H]1C(=O)O` [Example 51, (1S,2S)-2-((6-(5-((((R)-1-cyclopentylethoxy)carbonyl)amino)-1-methyl-1H-pyrazol-4-yl)-2-methylpyridin-3-yl)carbamoyl)cyclohexane-1-carboxylic acid], for which the IC50 in series [2] is 250 to 600 nM. For the same compound, in series [3], the inhibition at 10 min, 50 μM was at most 50%.

With `Cc1noc(-c2ccc(NC(=O)[C@H]3CCCC[C@@H]3C(=O)O)cn2)c1NC(=O)O[C@H](C)c1ccccc1` [Example 41, (1S,2S)-2-((6-(3-methyl-4-((((R)-1-phenylethoxy)carbonyl)amino)isoxazol-5-yl)pyridin-3-yl)carbamoyl)cyclohexane-1-carboxylic acid], the IC50 in series [2] is under 50 nM. In series [3], this compound displayed an inhibition at 10 min, 50 μM of at most 50%.
